53 compounds from PubChem BioAssay AID1996 can be followed below.

What is called kinetic solubility is solubility judged after dilution from a stock solution rather than from solid.

SMILES strings stand for the structures. Values after ≈ are worked out from the molar mass of the structure shown. A value given as a limit tells only on which side of the number the result lay.

For this series the following is noted: buffer; pH 7.4; 200.0 µM.
`COc1ccc(Cl)cc1NC(=O)Nc1cnccn1` registered a solubility (kinetic) of 0.4 µg/mL (≈ 1.44 µM).
As for `COCCNC(=O)c1cc2cc(Br)cc(Br)c2oc1=O`, the figure is 1.6 µg/mL (≈ 3.95 µM).
With `NS(=O)(=O)c1ccc(CCNc2ccc(C(F)(F)F)cn2)cc1` the figure was 48.1 µg/mL (≈ 139 µM); with `COc1ccc(OC)c(NC(=O)CCCSc2ccccc2)c1`, 13.7 µg/mL (≈ 41.3 µM); with `CCOc1ccccc1NC(=O)COC(=O)c1cc(C)oc1C`, 2.2 µg/mL (≈ 6.93 µM).
As for `Cl.Oc1ccc(Nc2ncnc3c2oc2ccccc23)cc1`, the figure is 0.7 µg/mL; as for `CCC(C)NC(=O)c1cc2c(=O)n3cccc(C)c3nc2s1` (stereo not drawn), 46 µg/mL (≈ 146 µM).
Take `O=C(O)CNC(=O)/C=C/c1ccc(Cl)cc1Cl`: the kinetic solubility stood at 37.6 µg/mL (≈ 137 µM).
As for `O=C(c1ccccc1)N1CCCC(C(=O)N2CCCCC2)C1` (stereo not drawn), the figure is above 45.1 µg/mL; as for `CCc1nonc1NC(=O)c1oc2cc(C)c(C)cc2c1C`, 0.3 µg/mL (≈ 1 µM); as for `Cc1ccc(C(C)C)c(OCC(=O)OCC(=O)NC2CC2)c1`, above 45.8 µg/mL.
With `Cc1cccc(C)c1N(CC(=O)N1CCOCC1)S(C)(=O)=O` the figure was above 49 µg/mL; with `CC1(C)CC(=O)C=C(NNC(=O)c2cccnc2)C1`, above 38.9 µg/mL.
With `Cc1sc2ncnc(Sc3ccccc3C(=O)O)c2c1C` the figure was 46.9 µg/mL (≈ 148 µM).
The compound `O=C1CN=C(c2ccccc2)c2cc([N+](=O)[O-])ccc2N1` came in with a kinetic solubility above 42.2 µg/mL.
Regarding `Cc1cc(C)nc(NC(=O)NC(=O)c2ccccc2)n1`, the solubility (kinetic) is above 40.5 µg/mL.
With `CC1(C(=O)O)CCC(C(N)=O)C1(C)C` (stereo not drawn) the figure was above 29.9 µg/mL; with `c1ccc2c(OCCCCN3CCCC3)cccc2c1`, 40.1 µg/mL (≈ 149 µM); with `CCCCOc1ccc(C(=O)Nc2ccc(CN3CCOCC3)cc2)cc1`, 1.1 µg/mL (≈ 2.99 µM).
For the compound `CCOC(=O)C1CCN(C(=O)Nc2c(-c3ccccc3)noc2C)CC1`, the solubility (kinetic) was determined as 52.1 µg/mL (≈ 146 µM).
The compound `Cc1ccccc1NC(=O)CCl` showed a solubility (kinetic) of 26.2 µg/mL (≈ 143 µM).
`COc1ccccc1NCCC(=O)OCC(=O)Nc1cc([N+](=O)[O-])ccc1F` came in with a kinetic solubility of 51.8 µg/mL (≈ 132 µM).
With `COc1ccccc1N1CCN(c2ccc(S(=O)(=O)N3CCN(C)CC3)cn2)CC1` the figure was 26.9 µg/mL (≈ 62.3 µM); with `CNC(=O)C(=O)NCCCN1CCOCC1`, above 34.4 µg/mL; with `CCOC(=O)/C(C#N)=C/C1=C(N2CCOCC2)CC(C)(C)OC1`, above 48.1 µg/mL.
As for `O=[N+]([O-])c1c(NCCCO)cc(Sc2ccc(Cl)cc2)c2nonc12`, the figure is 18.7 µg/mL (≈ 49.1 µM).
The compound `COc1ccc(C(=O)N2CCN(Cc3nc(CC4CC4)no3)CC2)cc1` came in with a kinetic solubility above 53.5 µg/mL.
With `C=CC(C)C(C(=O)c1ccccc1)N(C)C` (stereo not drawn) the figure was 12 µg/mL (≈ 55.2 µM); with `Fc1ccc(-c2cnc3n2CCCCC3)cc1`, above 34.5 µg/mL.
With `CCCc1ccc(OCCNC(=O)c2ccco2)cc1` the figure was above 41 µg/mL; with `CC(NC(=O)COC(=O)c1cccnc1Cl)C12CC3CC(CC(C3)C1)C2` (stereo not drawn), 52.4 µg/mL (≈ 139 µM); with `Cc1cccc(NC(=O)[C@@H]2CCCN2S(=O)(=O)c2ccc(Cl)cc2)c1`, 37.9 µg/mL (≈ 100 µM).
For `CCc1ccc(CN2CCC(CO)(CC3CCCCO3)CC2)o1` (stereo not drawn), the kinetic solubility came out at 38.1 µg/mL (≈ 119 µM).
As for `COc1ccc(NC(=O)NC2CCCCCCC2)cc1`, the figure is 2.5 µg/mL (≈ 9.05 µM).
As for `CCOC(=O)C1CCN(Cc2ccc(Cl)nc2)CC1`, the figure is above 42.4 µg/mL; as for `COc1ccccc1OCCCC(=O)Nc1nccs1`, 23.4 µg/mL (≈ 80 µM); as for `COc1cccc(NC(=O)c2nc(SC)ncc2Cl)c1`, 2.4 µg/mL (≈ 7.75 µM).
With `C=CCn1c(C(CC)CC)nc2ccccc21` the figure was 27.9 µg/mL (≈ 122 µM); with `Cc1ccc(C(=O)NCC(=O)NCc2ccc(Cl)cc2)s1`, 7.4 µg/mL (≈ 22.9 µM).
`Cc1ccc(CC(=O)Nc2nccs2)cc1C` showed a kinetic solubility of 3.3 µg/mL (≈ 13.4 µM).
As for `CN(Cc1ccccc1)C(=S)Nc1cccnc1`, the figure is above 38.6 µg/mL; as for `O=C(CSc1ccccc1C(=O)N1CCN(c2ccc([N+](=O)[O-])cc2)CC1)N1CCCC1`, above 68.2 µg/mL.
`Cc1c(C)n(CCCN(C)C)c2ncnc(NC3CCCCC3)c12` registered a solubility (kinetic) of 46.9 µg/mL (≈ 142 µM).
As for `Nc1nc(-c2c(Cl)cccc2Cl)no1`, the figure is 32.7 µg/mL (≈ 142 µM); as for `O=C(NCCc1c[nH]c2ccccc12)C(=O)c1c[nH]c2ccccc12`, 4.2 µg/mL (≈ 12.7 µM); as for `Cc1sc2ccccc2[n+]1CC(=O)c1ccccc1.[Br-]`, 42.6 µg/mL.
With `COc1ccc(OC)c(C(O)C(C)N)c1.Cl` (stereo not drawn) the figure was above 37.2 µg/mL; with `c1ccc2c(c1)CCc1ccccc1C2=C1CCNCC1`, 30.7 µg/mL (≈ 111 µM).
As for `Cc1cccc(C2=NOC(=O)/C2=C\c2ccccc2F)c1`, the figure is 6.5 µg/mL (≈ 23.1 µM); as for `O=C(CN1C(=O)c2cccc3cccc1c23)NC1CCCC1`, 4.4 µg/mL (≈ 14.9 µM); as for `O=C(COC(=O)c1ccc(Br)o1)NC12CC3CC(CC(C3)C1)C2`, 34.3 µg/mL (≈ 89.7 µM).
As to `COC(=O)c1sccc1NC(=O)Nc1ccc(F)cc1F`, the solubility (kinetic) came out at 26.6 µg/mL (≈ 85.2 µM). This solubility kinetic and that of the compound before are within 1.5-fold of each other.
With `Cc1cc(C(=O)CCC(=O)NCC(=O)Nc2c(C)cccc2C)c(C)s1` the figure was above 55.9 µg/mL.
